Assay results from patent US11548888B2, “KRas G12C inhibitors” (Mirati Therapeutics, Inc., priority 2019, dated 2023).

What follows are molecules tested against T1, KRas G12C (Homo sapiens, UniProt P01116, G12C) (assay: Inhibition of KRas G12C-dependent cell growth: Phospho-ERK in NCI-H358 cells). Conditions: NCI-H358 cells expressing KRas G12C; Phospho-ERK (Thr202/Tyr204) normalized to GAPDH; 3 hours compound; 4 parameter fit.
T1 construct: NCI-H358 cells (ATCC CRL-5807) express KRas G12C
Type: cell-based
Method in brief: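 NCI-H358 cells (KRas G12C) exposed to compounds for 3 h, 0.5% DMSO final. Fixed cells immunostained for pERK(Thr202/Tyr204) and GAPDH with infrared secondary antibodies. pERK normalized to GAPDH, expressed as percent of DMSO control; IC50 from 4-parameter dose-response fit.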

T1 sequence (P01116 1-188 isoform P01116-2 G12C): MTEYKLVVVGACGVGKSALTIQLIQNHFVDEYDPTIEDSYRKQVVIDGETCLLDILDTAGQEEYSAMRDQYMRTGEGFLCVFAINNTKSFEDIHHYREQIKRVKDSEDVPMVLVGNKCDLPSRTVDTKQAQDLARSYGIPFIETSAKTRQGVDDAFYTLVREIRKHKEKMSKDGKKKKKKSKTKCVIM

| SMILES | IC50 |
| --- | --- |
| COC/C=C/C(=O)N1CCN(c2nc(OC[C@@H]3CCCN3C)nc3c(F)c(-c4cccc5cccc(C)c45)ncc23)C[C@@H]1CC#N [Example 61, 2-[(2S)-4-[8-fluoro-7-(8-methyl-1-naphthyl)-2-[[(2S)-1-methylpyrrolidin-2-yl]methoxy]pyrido[4,3-d]pyrimidin-4-yl]-1-[(E)-4-methoxybut-2-enoyl]piperazin-2-yl]acetonitrile] | 70 nM |
| COC/C=C/C(=O)N1CCN(c2nc(OC[C@@H]3C[C@@H](OC)CN3C)nc3c(F)c(-c4cccc5cccc(Cl)c45)ncc23)C[C@@H]1CC#N [Example 62, 2-((S)-4-(7-(8-chloronaphthalen-1-yl)-8-fluoro-2-(((2S,4R)-4-methoxy-1-methylpyrrolidin-2-yl)methoxy)pyrido[4,3-d]pyrimidin-4-yl)-1-((E)-4-methoxybut-2-enoyl)piperazin-2-yl)acetonitrile] | 18 nM |
| C=C(F)C(=O)N1CCN(c2nc(OC3CCN(C4CCOCC4)CC3)nc3c(F)c(-c4cccc5cccc(Cl)c45)ncc23)C[C@@H]1CC#N [Example 64] | 376 nM |
| CC(C)(C)N1CCC1COc1nc(N2CCN(C(=O)/C=C/CF)[C@@H](CC#N)C2)c2cnc(-c3cccc4cccc(Cl)c34)c(F)c2n1 (some centres unmarked) [Example 66] | 12 nM |
| C=C(F)C(=O)N1CCN(c2nc(OCCN(C)C)nc3c(F)c(-c4cccc5cccc(Cl)c45)ncc23)C[C@@H]1CC#N [Example 68] | 86 nM |
| C=CC(=O)N1CCN(c2nc(OC[C@@H]3CCCN3C)nc3c(F)c(-c4cccc5cccc(Cl)c45)ncc23)[C@@H](C)C1 [Example 69] | 58 nM |
| C=C(F)C(=O)N1CCN(c2nc(O[C@H](C)CN(C)C)nc3c(F)c(-c4cccc5cccc(Cl)c45)ncc23)C[C@@H]1CC#N [Example 73] | 593 nM |
| C=CC(=O)N1CC2(CCN(c3nc(OC4CCN(C5CCOCC5)CC4)nc4c(F)c(-c5cccc6cccc(Cl)c56)ncc34)CC2)C1 [Example 74] | 1350 nM |
| C=C(F)C(=O)N1CCN(c2nc(OC[C@@H]3CCCN3C)nc3c(F)c(-c4cccc5cccc(Cl)c45)ncc23)[C@@H](C)C1 [Example 75] | 1190 nM |
| C=C(F)C(=O)N1CCN(c2nc(OC[C@@H]3CCCN3C)nc3c(F)c(-c4cccc5cccc(Cl)c45)ncc23)[C@H](C)C1 [Example 76] | 3000 nM |
| COC/C=C/C(=O)N1CCN(c2nc(OC[C@@H]3CCCN3C)nc3c(F)c(-c4cccc5cccc(Cl)c45)ncc23)C[C@@H]1CC#N [Example 78] | 13 nM |
| C=CC(=O)N1CCN(c2nc(OC[C@@H]3CCCN3C)nc3c(F)c(-c4c(C)ccc5[nH]ncc45)ncc23)[C@@H](C)C1 [Example 79] | 675 nM |
| C=CC(=O)N1CCN(c2nc(OC[C@@H]3CCCN3C)nc3c(F)c(-c4c(C)ccc5[nH]ncc45)ncc23)CC1 [Example 80] | 2520 nM |
| C=C(F)C(=O)N1CCN(c2nc(OCCc3cccc(N)c3)nc3c(F)c(-c4cccc5cccc(Cl)c45)ncc23)C[C@@H]1CC#N [Example 82] | 618 nM |
| C=CC(=O)N1CC2(CCN(c3nc(OC[C@@H]4CCCN4C)nc4c(F)c(-c5c(C)ccc6[nH]ncc56)ncc34)CC2)C1 [Example 83] | 3500 nM |
| C=CC(=O)N1CC2(CCN(c3nc(OC[C@@H]4CCCN4C)nc4c(F)c(-c5cccc6cccc(Cl)c56)ncc34)CC2)C1 [Example 85] | 519 nM |
| COC/C=C/C(=O)N1CCN(c2nc(OC[C@@H]3CCCN3C)nc3c(F)c(-c4cncc5cccc(Cl)c45)ncc23)C[C@@H]1CC#N [Example 88] | 77 nM |
| CN1CCC[C@H]1COc1nc(N2CCN(C(=O)/C=C/CF)[C@@H](CC#N)C2)c2cnc(-c3cncc4cccc(Cl)c34)c(F)c2n1 [Example 90] | 26 nM |

| SMILES | IC50 |
| --- | --- |
| C=C(F)C(=O)N1CCN(c2nc(N3CC(N(C)C)C3)nc3c(F)c(-c4cccc5cccc(Cl)c45)ncc23)C[C@@H]1CC#N [Example 91] | 29 nM |
| C=CC(=O)N1CCN(c2nc(OC[C@@H]3CCCN3C)nc3c(F)c(-c4cncc5cccc(Cl)c45)ncc23)CC1 [Example 93] | 366 nM |
| C=CC(=O)N1CCN(c2nc(OC[C@@H]3CCCN3C)nc3c(F)c(-c4cncc5cccc(Cl)c45)ncc23)[C@@H](C)C1 [Example 96] | 200 nM |
| C=C(F)C(=O)N1CCN(c2nc(NC3CCN(C4CC4)CC3)nc3c(F)c(-c4cccc5cccc(Cl)c45)ncc23)C[C@@H]1CC#N [Example 97] | 2520 nM |
| C=CC(=O)N1CC2CC1CN2c1nc(OC[C@@H]2CCCN2C)nc2c(F)c(-c3cncc4cccc(Cl)c34)ncc12 (some centres unmarked) [Example 98] | 10000 nM |
| C=C(F)C(=O)N1CCN(c2nc(OC[C@@H]3CCCN3C)nc3c(F)c(-c4c(C)ccc5cnn(C)c45)ncc23)C[C@@H]1CC#N [Example 99] | 444 nM |
| C=CC(=O)N1CCN(c2nc(OC[C@@H]3CCCN3C)nc3c(F)c(-c4ccccc4F)ncc23)[C@@H](C)C1 [Example 100] | 10000 nM |
| C=CC(=O)N1CCN(c2nc(OC[C@@H]3CCCN3C)nc3c(F)c(-c4nc(N)ccc4Cl)ncc23)CC1 [Example 103] | 10000 nM |
| C=CC(=O)N1CC2CN(c3nc(OC[C@@H]4CCCN4C)nc4c(F)c(-c5cncc6cccc(Cl)c56)ncc34)CC2C1 (some centres unmarked) [Example 105] | 10000 nM |
| C=C(F)C(=O)N1CCN(c2ncnc3c(F)c(-c4cccc5cccc(Cl)c45)ncc23)C[C@@H]1CC#N [Example 106] | 1540 nM |
| C=C(F)C(=O)N1CCN(c2nc(OC[C@@H]3CCCN3C)nc3c(F)c(-c4nc(N)cc5ccccc45)ncc23)C[C@@H]1CC#N [Example 107] | 156 nM |
| C=CC(=O)N1CCN(c2ncnc3c(F)c(-c4cccc5cccc(Cl)c45)ncc23)C[C@@H]1CC#N [Example 108] | 37 nM |
| C=CC(=O)N1CCN(c2ncnc3c(F)c(-c4cccc5ccc(F)c(Cl)c45)ncc23)C[C@@H]1CC#N [Example 109] | 21 nM |
| COC/C=C/C(=O)N1CCN(c2ncnc3c(F)c(-c4cccc5ccc(F)c(Cl)c45)ncc23)C[C@@H]1CC#N [Example 110] | 725 nM |
| C=C(F)C(=O)N1CCN(c2ncnc3c(F)c(-c4cccc5cccc(C)c45)ncc23)C[C@@H]1CC#N [Example 111] | 3920 nM |
| N#CC[C@H]1CN(c2ncnc3c(F)c(-c4cccc5ccc(F)c(Cl)c45)ncc23)CCN1C(=O)/C=C/CF [Example 112] | 218 nM |
| N#CC[C@H]1CN(c2ncnc3c(F)c(-c4cccc5ccc(F)c(Cl)c45)ncc23)CCN1C(=O)/C=C/C(F)F [Example 115] | 76 nM |

Continued, values first:

| IC50 | SMILES |
| --- | --- |
| 127 nM | C=CC(=O)N1CCN(c2nc(OC[C@@H]3CCCN3C)nc3c(F)c(-c4ccccc4F)ncc23)C[C@@H]1CC#N [Example 60, 2-[(2S)-4-[8-fluoro-7-(2-fluorophenyl)-2-[[(2S)-1-methylpyrrolidin-2-yl]methoxy]pyrido[4,3-d]pyrimidin-4-yl]-1-prop-2-enoyl-piperazin-2-yl]acetonitrile] |
| 2850 nM | C=C(F)C(=O)N1CCN(c2nc(OC[C@@H]3CCCN3C)nc3c(OCC(F)(F)F)c(-c4cccc5cccc(C)c45)ncc23)C[C@@H]1CC#N [Example 63, 2-((S)-1-(2-fluoroacryloyl)-4-(7-(8-methylnaphthalen-1-yl)-2-(((S)-1-methylpyrrolidin-2-yl)methoxy)-8-(2,2,2-trifluoroethoxy)pyrido[4,3-d]pyrimidin-4-yl)piperazin-2-yl)acetonitrile] |
| 36 nM | C=C(F)C(=O)N1CCN(c2nc(OCC3CN(C)CCO3)nc3c(F)c(-c4cccc5cccc(Cl)c45)ncc23)C[C@@H]1CC#N (some centres unmarked) [Example 65] |
| 456 nM | C=C(F)C(=O)N1CCN(c2nc(OC3CCN(C)CC3)nc3c(F)c(-c4cccc5cccc(Cl)c45)ncc23)C[C@@H]1CC#N [Example 70] |
| 13 nM | C=C(F)C(=O)N1CCN(c2nc(OCC3CCN3C)nc3c(F)c(-c4cccc5cccc(Cl)c45)ncc23)C[C@@H]1CC#N (some centres unmarked) [Example 71] |
| 2 nM | C=C(F)C(=O)N1CCN(c2nc(OCC34CCCN3CCC4)nc3c(F)c(-c4cccc5cccc(Cl)c45)ncc23)C[C@@H]1CC#N [Example 77] |
| 1100 nM | C=C(F)C(=O)N1CCN(c2nc(OC[C@@H]3CCCN3C)nc3c(F)c(-c4c(O)cccc4F)ncc23)C[C@@H]1CC#N [Example 81] |
| 765 nM | C=C(F)C(=O)N1CCN(c2nc(OC[C@@H]3CCCN3C)nc3c(F)c(-c4cccc5cnn(C)c45)ncc23)C[C@@H]1CC#N [Example 84] |
| 14 nM | C=C(F)C(=O)N1CCN(c2nc(OC[C@@H]3CCCN3C)nc3c(F)c(-c4cccc5ccc(F)c(C)c45)ncc23)C[C@@H]1CC#N [Example 86] |
| 4380 nM | C=C(F)C(=O)N1CCN(c2nc(OC[C@@H]3CCCN3C)nc3c(F)c(-c4ccccc4F)ncc23)C[C@@H]1CC#N [Example 87] |
| 11 nM | C=C(F)C(=O)N1CCN(c2nc(OC[C@@H]3CCCN3C)nc3c(F)c(-c4cccc5ccc(F)c(Cl)c45)ncc23)C[C@@H]1CC#N [Example 92] |
| 14 nM | C=C(F)C(=O)N1CCN(c2nc(OC[C@@H]3CCCN3C)nc3c(F)c(-c4cc(O)cc5ccccc45)ncc23)C[C@@H]1CC#N [Example 95] |
| 43 nM | C=C(F)C(=O)N1CCN(c2nc(OCC34CCCN3CCC4)nc3c(F)c(-c4cccc(F)c4C(F)(F)F)ncc23)C[C@@H]1CC#N [Example 101] |
| 12 nM | C=CC(=O)N1CCN(c2nc(OCC34CCCN3CCC4)nc3c(F)c(-c4cccc5ccc(F)c(Cl)c45)ncc23)CC1 [Example 102] |
| 699 nM | C=C(F)C(=O)N1CCN(c2nc(OCCC(F)(F)F)nc3c(F)c(-c4cccc5ccc(F)c(Cl)c45)ncc23)C[C@@H]1CC#N [Example 104] |
| 13 nM | C=C(F)C(=O)N1CCN(c2nc(OC[C@@H]3C[C@@H](OC)CN3C)nc3c(F)c(-c4cccc5ccc(F)c(Cl)c45)ncc23)C[C@@H]1CC#N [Example 113] |
| 2 nM | C=C(F)C(=O)N1CCN(c2nc(OCC34CCCN3CCC4)nc3c(F)c(-c4cccc5ccc(F)c(Cl)c45)ncc23)C[C@@H]1CC#N [Example 114] |
| 31 nM | C=C(F)C(=O)N1CCN(c2nc(OC[C@@H]3C[C@@H](F)CN3C(C)C)nc3c(F)c(-c4cccc5ccc(F)c(Cl)c45)ncc23)C[C@@H]1CC#N [Example 116] |
